Source: the NIST ThermoML archive (doi:10.1007/s10765-007-0223-x)
Numbers after ± are expanded uncertainties.

Tests used:
[1] = xn = mol fraction of the nth substance listed; details: 101 kPa, Liquid; for speed of sound: Single path-length method
[2] = 101 kPa, Liquid; for speed of sound: Single path-length method

c1ccccc1 [benzene] + COC(C)(C)C
[1], x2 = 0
Details	mass density [kg/m3]	speed of sound [m/s]
288.15 K	884.183 ± 0.35	1345.5 ± 2.1
290.65 K	881.521 ± 0.35	1333.4 ± 2.1
293.15 K	878.856 ± 0.35	1321.6 ± 2.1
295.65 K	876.19 ± 0.36	1309.9 ± 2.1
298.15 K	873.52 ± 0.36	1298.3 ± 2.1
300.65 K	870.847 ± 0.37	1286.7 ± 2.1
303.15 K	868.172 ± 0.37	1275.1 ± 2.1
305.65 K	865.49 ± 0.37	1263.6 ± 2.1
308.15 K	862.805 ± 0.38	1252.1 ± 2.1
310.65 K	860.118 ± 0.38	1240.7 ± 2.1
313.15 K	857.425 ± 0.39	1229.3 ± 2.1
315.65 K	854.73 ± 0.39	1217.9 ± 2.1
318.15 K	852.032 ± 0.39	1206.7 ± 2.1
320.65 K	849.331 ± 0.4	1195.5 ± 2.1
323.15 K	846.641 ± 0.4	1184.6 ± 2.1

CC(C)(C)O [2-methylpropan-2-ol]
[2]
Details	mass density [kg/m3]	speed of sound [m/s]
301.65 K	777.762 ± 0.51	1109 ± 2.2
303.15 K	775.212 ± 0.51	1099 ± 2.1
305.65 K	772.623 ± 0.51	1088.3 ± 2.1
308.15 K	770.015 ± 0.52	1077.7 ± 2.1
310.65 K	767.391 ± 0.52	1067.2 ± 2.1
313.15 K	764.739 ± 0.52	1056.7 ± 2.1
315.65 K	762.054 ± 0.53	1046.1 ± 2.1
318.15 K	759.355 ± 0.53	1035.7 ± 2.1
320.65 K	756.633 ± 0.54	1025.2 ± 2.1
323.15 K	753.891 ± 0.54	1014.8 ± 2.1

CC(C)CC(C)(C)C [2,2,4-trimethylpentane]
[2]
Details	mass density [kg/m3]	speed of sound [m/s]
288.15 K	695.948 ± 0.62	1124.3 ± 2.1
290.65 K	693.91 ± 0.63	1113.8 ± 2.1
293.15 K	691.861 ± 0.63	1103.3 ± 2.1
295.65 K	689.809 ± 0.63	1092.7 ± 2.1
298.15 K	687.749 ± 0.64	1082.2 ± 2.1
300.65 K	685.687 ± 0.64	1071.7 ± 2.1
303.15 K	683.618 ± 0.64	1061.3 ± 2.1
305.65 K	681.542 ± 0.65	1050.9 ± 2.1
308.15 K	679.459 ± 0.65	1040.5 ± 2.1
310.65 K	677.373 ± 0.65	1030.2 ± 2.1
313.15 K	675.278 ± 0.66	1019.9 ± 2.1
315.65 K	673.177 ± 0.66	1009.7 ± 2.1
318.15 K	671.069 ± 0.66	999.53 ± 2.1
320.65 K	668.954 ± 0.67	989.37 ± 2.1
323.15 K	666.832 ± 0.67	979.25 ± 2.1

COC(C)(C)C [2-methoxy-2-methylpropane] + CCc1ccccc1
[1], x1 = 1
Details	mass density [kg/m3]	speed of sound [m/s]
288.15 K	744.861 ± 0.55	1083.4 ± 2.1
290.65 K	742.259 ± 0.56	1071.6 ± 2.1
293.15 K	739.654 ± 0.56	1060 ± 2.1
295.65 K	737.036 ± 0.56	1048.5 ± 2.1
298.15 K	734.406 ± 0.57	1036.9 ± 2.1
300.65 K	731.766 ± 0.57	1025.4 ± 2.1
303.15 K	729.112 ± 0.58	1013.9 ± 2.1
305.65 K	726.444 ± 0.58	1002.4 ± 2.1
308.15 K	723.763 ± 0.58	990.99 ± 2.1
310.65 K	721.069 ± 0.59	979.62 ± 2.1
313.15 K	718.357 ± 0.59	968.16 ± 2.1
315.65 K	715.636 ± 0.6	956.8 ± 2.1
318.15 K	712.897 ± 0.6	945.54 ± 2.1
320.65 K	710.141 ± 0.6	934.24 ± 2.1
323.15 K	707.381 ± 0.61	922.97 ± 2.1

CCc1ccccc1 [ethylbenzene]
[2]
Details	mass density [kg/m3]	speed of sound [m/s]
288.15 K	871.245 ± 0.36	1360.7 ± 2.1
290.65 K	869.052 ± 0.37	1349.9 ± 2.1
293.15 K	866.856 ± 0.37	1339.4 ± 2.1
295.65 K	864.66 ± 0.37	1328.9 ± 2.1
298.15 K	862.459 ± 0.38	1318.4 ± 2.1
300.65 K	860.256 ± 0.38	1307.9 ± 2.1
303.15 K	858.047 ± 0.38	1297.5 ± 2.1
305.65 K	855.837 ± 0.39	1287.1 ± 2.1
308.15 K	853.622 ± 0.39	1276.8 ± 2.1
310.65 K	851.407 ± 0.39	1266.5 ± 2.1
313.15 K	849.186 ± 0.4	1256.3 ± 2.1
315.65 K	846.964 ± 0.4	1246.1 ± 2.1
318.15 K	844.741 ± 0.4	1236.1 ± 2.1
320.65 K	842.518 ± 0.41	1226.1 ± 2.1
323.15 K	840.306 ± 0.41	1216.3 ± 2.1

CC(C)CC(C)(C)C [2,2,4-trimethylpentane] + COC(C)(C)C
[1], x2 = 0
Details	mass density [kg/m3]	speed of sound [m/s]
288.15 K	695.948 ± 0.62	1124.3 ± 2.1
290.65 K	693.91 ± 0.63	1113.8 ± 2.1
293.15 K	691.861 ± 0.63	1103.3 ± 2.1
295.65 K	689.809 ± 0.63	1092.7 ± 2.1
298.15 K	687.749 ± 0.64	1082.2 ± 2.1
300.65 K	685.687 ± 0.64	1071.7 ± 2.1
303.15 K	683.618 ± 0.64	1061.3 ± 2.1
305.65 K	681.542 ± 0.65	1050.9 ± 2.1
308.15 K	679.459 ± 0.65	1040.5 ± 2.1
310.65 K	677.373 ± 0.65	1030.2 ± 2.1
313.15 K	675.278 ± 0.66	1019.9 ± 2.1
315.65 K	673.177 ± 0.66	1009.7 ± 2.1
318.15 K	671.069 ± 0.66	999.53 ± 2.1
320.65 K	668.954 ± 0.67	989.37 ± 2.1
323.15 K	666.832 ± 0.67	979.25 ± 2.1
